Source: ChEMBL document CHEMBL1201862, “PubChem BioAssay data set” (2004)
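How tested: cells in 96-well plates exposed to compound for 48 hours at five concentrations. GI50 = concentration required for 50% inhibition of growth.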 Active and inactive are the calls of the source. No stated cut-off is given here; in the data, active = GI50 up to about 1.1 µM and inactive = higher.

How the values were obtained:
Assay in all cases: growth of human tumour cells (NCI), 48 h
SK-MEL-28 = test system: SK-MEL-28
MCF7 = test system: MCF7
DU-145 = test system: DU-145
BT-549 = test system: BT-549
KM12 = test system: KM12
UACC-257 = test system: UACC-257
RXF 393 = test system: RXF 393
786-0 = test system: 786-0
SNB-75 = test system: SNB-75
SW-620 = test system: SW-620
M14 = test system: M14
HCC 2998 = test system: HCC 2998
MDA-MB-231 = test system: MDA-MB-231
OVCAR-5 = test system: OVCAR-5
MOLT-4 = test system: MOLT-4
OVCAR-4 = test system: OVCAR-4
UACC-62 = test system: UACC-62
OVCAR-3 = test system: OVCAR-3
OVCAR-8 = test system: OVCAR-8
M19-MEL = test system: M19-MEL

Measured: GI50

Sc1nnc(CNc2ccc(-c3nnc(S)n3-c3ccc(Cl)cc3)cc2)n1-c1ccc(Cl)cc1
inactive: SK-MEL-28 25.8 µM | MCF7 40.3 µM | DU-145 30.5 µM | BT-549 34.6 µM | KM12 18.5 µM | UACC-257 41.2 µM | RXF 393 45.4 µM | 786-0 26.9 µM | SNB-75 39.7 µM | SW-620 35.3 µM | M14 25.2 µM | HCC 2998 31.2 µM | MDA-MB-231 20.2 µM | OVCAR-5 18.1 µM | MOLT-4 26.2 µM | OVCAR-4 29.5 µM | UACC-62 25.2 µM

O=C1C=CC(=O)C1(Br)Br
inactive: SK-MEL-28 7.24 µM | MCF7 11 µM | DU-145 16 µM | BT-549 11.3 µM | KM12 13.1 µM | UACC-257 16.1 µM | RXF 393 6.37 µM | 786-0 9.18 µM | SNB-75 12 µM | SW-620 10.1 µM | M14 18.1 µM | OVCAR-3 12.9 µM | HCC 2998 16.2 µM | MDA-MB-231 8.22 µM | OVCAR-5 10.7 µM | MOLT-4 14.7 µM | OVCAR-4 17.6 µM | UACC-62 10.8 µM | OVCAR-8 8.3 µM

CC(=O)N1N=C(c2ccc3ccccc3c2O)CC1c1cccs1 (centres undefined)
inactive: SK-MEL-28 37.2 µM | MCF7 10.9 µM | DU-145 34 µM | BT-549 19.5 µM | KM12 14.4 µM | UACC-257 34.8 µM | RXF 393 15.7 µM | SNB-75 25.5 µM | SW-620 16 µM | M14 14.4 µM | OVCAR-3 7.96 µM | HCC 2998 21.6 µM | MDA-MB-231 20.6 µM | OVCAR-5 32.4 µM | MOLT-4 4.26 µM | OVCAR-4 27.8 µM | UACC-62 9.31 µM | OVCAR-8 16.9 µM

O=c1[nH]c(=O)n(C2CC(O)C(CO)O2)cc1C#Cc1cc(C(F)(F)F)cc(C(F)(F)F)c1 (centres undefined)
inactive: SK-MEL-28 > 31.7 µM | KM12 > 30.8 µM | UACC-257 > 37.5 µM | M19-MEL > 31.3 µM | RXF 393 8.87 µM | SNB-75 21.1 µM | SW-620 > 30.2 µM | M14 > 24.8 µM | OVCAR-3 > 52.1 µM | HCC 2998 > 32 µM | OVCAR-5 > 100 µM | MOLT-4 > 26.9 µM | OVCAR-4 > 29.4 µM | UACC-62 > 25.6 µM

CCOP(=O)(CCC(O)CNc1nc(N)nc(Cl)c1/N=N/c1ccc(Cl)cc1)OCC (centres undefined)
inactive: SK-MEL-28 11.6 µM | MCF7 11.5 µM | DU-145 14.2 µM | BT-549 7.38 µM | KM12 19.1 µM | UACC-257 13.6 µM | RXF 393 6.31 µM | 786-0 7.93 µM | SNB-75 4.5 µM | SW-620 15.9 µM | OVCAR-3 10.7 µM | HCC 2998 13.3 µM | MDA-MB-231 19.3 µM | OVCAR-5 17.6 µM | MOLT-4 6.95 µM | OVCAR-4 5.24 µM | UACC-62 13 µM | OVCAR-8 17.7 µM

CCCC1(N)CC(OC)OC(C)C1O (centres undefined)
inactive: SK-MEL-28 > 100 µM | MCF7 > 100 µM | DU-145 > 100 µM | BT-549 > 100 µM | KM12 > 100 µM | UACC-257 > 100 µM | RXF 393 > 100 µM | 786-0 > 100 µM | SNB-75 > 100 µM | SW-620 > 100 µM | M14 > 100 µM | OVCAR-3 > 100 µM | HCC 2998 > 100 µM | MDA-MB-231 > 100 µM | OVCAR-5 > 100 µM | MOLT-4 > 100 µM | UACC-62 > 100 µM | OVCAR-8 > 100 µM

Cc1cc(S(=O)(=O)O)c(NC(=O)C(=O)C2C=CCS2(=O)=O)cc1Cl (centres undefined)
inactive: SK-MEL-28 > 100 µM | KM12 > 100 µM | UACC-257 > 100 µM | M19-MEL > 100 µM | RXF 393 > 100 µM | 786-0 > 100 µM | SNB-75 > 100 µM | SW-620 > 100 µM | M14 > 100 µM | OVCAR-3 > 100 µM | HCC 2998 > 100 µM | OVCAR-5 > 100 µM | MOLT-4 > 100 µM | OVCAR-4 > 100 µM | UACC-62 > 100 µM | OVCAR-8 > 100 µM

CC1(C)CCC[C@@]2(C)C1C[C@H](O)[C@@]1(C)O[C@@](C)([C@H](O)CO)CCC21 (some centres undefined)
inactive: SK-MEL-28 34.6 µM | KM12 37.2 µM | UACC-257 33.5 µM | M19-MEL 40.8 µM | 786-0 44 µM | SNB-75 20.1 µM | SW-620 47 µM | M14 34.6 µM | OVCAR-3 29.8 µM | HCC 2998 60.8 µM | OVCAR-5 39.8 µM | MOLT-4 21.2 µM | OVCAR-4 35.7 µM | UACC-62 28.6 µM | OVCAR-8 39.3 µM

COC1C(=[N+]=[N-])C(=O)NC(=O)N1C1OC(COC(c2ccccc2)(c2ccccc2)c2ccccc2)C(O)C1O (centres undefined)
inactive: SK-MEL-28 16.4 µM | KM12 16.9 µM | UACC-257 > 10 µM | M19-MEL 19.4 µM | SNB-75 15 µM | SW-620 18.5 µM | M14 19 µM | OVCAR-3 18.7 µM | HCC 2998 18.4 µM | OVCAR-5 17.8 µM | MOLT-4 18.2 µM | OVCAR-4 14.2 µM | UACC-62 15.1 µM | OVCAR-8 19.2 µM
